Laboratory results from US20110207697A1, “XANTHOHUMOL COMPOSITIONS AND METHODS FOR TREATING SKIN DISEASES OR DISORDERS” (Betal, LLC, priority 2008, published 2011).
In brackets after ≈: the same amount, converted by molar mass. Read-outs that look alike come from different tables or passages of the source.

What was measured:
[1] = ORAC-Total (ORAClipo + ORAChydro)
From the text: An ORAC method for lipophilic antioxidants was further developed and validated using fluorescein as the fluorescent probe (Prior et al. 2003 J. Agric. Food Chem. 51: 3273-3279). This method has the advantage that similar assay conditions and standards can be used for both hydrophilic and lipophilic antioxidant components, such that the two values can be added together to obtain a total antioxidant capacity. In the present work, the ORAC value is expressed as the sum of values of both the water-soluble and fat-soluble parts. Green tea catechins (Polyphenon 60) were used as the control with the highest ORAC value among edible plants. Vitamin C and vitamin E were used as controls for water- and fat-soluble molecules, respectively. […] The SOAC scores are not included in this figure; ORAC values used are the sum of lipophilic and hydrophilic results. For each assay category, scaling was made logarithmic so that the plot on the chart resembles the associated rating. […] The larger the spatial area, the higher the overall antioxidative capacity. […] Both hydrophilic and lipophilic oxygen radical absorbance capacity (ORAC) assays were carried out at Brunswick Laboratory (Wareham, Mass.) based on the modified ORACfl method reported by Ou et al. (2001 J. Agric. Food Chem. 49: 4619-4626, 2002 J. Agr. Food Chem. 50: 3122-3128). Trolox, a water-soluble vitamin E analog, was used as the calibration standard. The data are expressed as mmole of Trolox equivalents per gram (mmol TE/g). The acceptable precision of the ORAC assay is a 15% relative standard deviation. Caffeic acid was used as the calibration standard. Hydroxyl radical ORAC (HOR-AC) is expressed as mmole caffeic acid equivalent per gram (mmol CAE/g). Trolox was used as the calibration standard. The peroxyl nitrite ORAC (NORAC) result is expressed as mmol TE/g. Alpha-tocopherol (vitamin E) was used as the calibration standard, and the singlet oxygen absorbance capacity (SOAC) result is expressed as mmole a-tocopherol equivalent (mmol VtE) per gram (Aubry et al. 1989). The abbreviation for the 1,1-diphenyl-2-picrylhydrazyl radical is DPPH. Radical-scavenging activity was measured by the change in absorbance at 517 nm with the DPPH result expressed as mmol TE/g. Similarly, FRAP is an abbreviation for the ferric reducing antioxidative power method, which utilizes chemical conversion of the yellow Fe 3+-2,4,6-tripyridyl s-triazine (TPTZ) complex to the blue Fe 2+-TPTZ complex by electron donation under acidic conditions (Okada and Okada 1998 J. Agric. Food Chem. 46: 401-406). The FRAP result is expressed as mmol TE/g (Ou et al. 2002b). Superoxide dismutase (SOD) was used as a calibration standard; the SOD result is expressed as kilo unit SOD equivalent (kunitSODeq) per gram.

[2] = HORAC hydroxyl radical ORAC; settings: FIG. 2 radar chart
Procedure: [table] […] The SOAC scores are not included in this figure; ORAC values used are the sum of lipophilic and hydrophilic results. For each assay category, scaling was made logarithmic so that the plot on the chart resembles the associated rating. […] The larger the spatial area, the higher the overall antioxidative capacity. […] Both hydrophilic and lipophilic oxygen radical absorbance capacity (ORAC) assays were carried out at Brunswick Laboratory (Wareham, Mass.) based on the modified ORACfl method reported by Ou et al. (2001 J. Agric. Food Chem. 49: 4619-4626, 2002 J. Agr. Food Chem. 50: 3122-3128). Trolox, a water-soluble vitamin E analog, was used as the calibration standard. The data are expressed as mmole of Trolox equivalents per gram (mmol TE/g). The acceptable precision of the ORAC assay is a 15% relative standard deviation. […] Hydroxyl radical ORAC (HOR-AC) is expressed as mmole caffeic acid equivalent per gram (mmol CAE/g). […] The peroxyl nitrite ORAC (NORAC) result is expressed as mmol TE/g. Alpha-tocopherol (vitamin E) was used as the calibration standard, and the singlet oxygen absorbance capacity (SOAC) result is expressed as mmole a-tocopherol equivalent (mmol VtE) per gram (Aubry et al. 1989). […] Radical-scavenging activity was measured by the change in absorbance at 517 nm with the DPPH result expressed as mmol TE/g. […] The FRAP result is expressed as mmol TE/g (Ou et al. 2002b). […]

[3] = Water solubility of xanthohumol (HPLC of supernatant); type: physicochemical; settings: thermodynamic from solid, 1 mg xanthohumol per ml water, sonicated 5 minutes
Procedure: Pure xanthohumol (XN), Xanohop A, xanthohumol-gamma cyclodextrin (XN/gCD), and xanthohumol-beta cyclodextrin (XN/bCD) were dispersed in water at a ratio of 1 mg xanthohumol per ml of water. After being sonicated for 5 minutes, the resultant suspensions were centrifuged at 3,000 rpm for 2 minutes or 12,000 rpm for 3 minutes. The supernatants thus formed were collected, diluted (1:10) with methanol, and then injected into HPLC to determine xanthohumol concentrations.

S. pyogenes (ATCC 14289) = experiment: Antimicrobial susceptibility, broth dilution (MIC/MBC); type: cell-based, Streptococcus pyogenes
Procedure: The antibacterial effects of seven hops components against five different strains of bacteria involved in primary or secondary skin and soft tissue infections was evaluated, with broth dilution methods. […] Antimicrobial susceptibility testing was performed using a broth dilution method. Gentamicin or ampicillin was used as a control to verify the methodology. A stock solution (20 mg/ml) of the test substance (or vehicle control) was prepared in dimethyl sulfoxide. Serial dilution was done in microwell plates. Reinforced Clostridial Medium was used for P. acnes (ATCC 6919). Three hundreds […] of the test substance was added to the test tube containing P. acnes (10^5 CFU/ml) in 2.7 ml of cultures grown under anaerobic conditions. Mueller-Hinston Broth suitable for culturing S. epidermidis (ATCC 12228), K. rhizophila (formerly M. luteus) (ATCC 9341), and S. aureus (ATCC […]), and Brain Heart Infusion Broth suitable for culturing S. pyogenes (ATCC 14289) were used. A total of […] of the test substance was added to the test tube containing the other microorganisms (10^5CFU/ml) in 0.9 ml of cultures grown under controlled conditions. […] Samples from those tubes that scored positive was plated onto an agar plate and incubated under controlled conditions.

solubility at 5 min ([3]; centrifuged 3,000 rpm 2 minutes, read-out: Water-solubility of XN (3,000 rpm)): 4 µg/mL (≈ 11.3 µM)
solubility at 5 min ([3]; centrifuged 12,000 rpm 3 minutes, read-out: Water-solubility of XN (12,000 rpm)): 2 µg/mL (≈ 5.64 µM)
MIC (S. pyogenes (ATCC 14289); 1 day): 1 µg/mL (≈ 2.82 µM)
SMILES: COc1cc(O)c(CC=C(C)C)c(O)c1C(=O)/C=C/c1ccc(O)cc1 [Xanthohumol (7), 3′-[3,3-dimethylallyl]-2′,4′,4-trihydroxy-6′-methoxychalcone]
quenching activity against peroxyl radical (ORAC-total), rank among hop components ([1]; FIG. 2 radar chart): highest quenching activity
ORAC-Total (Trolox equivalent) ([1]; ORAClipo + ORAChydro): 4.2 Trolox equivalent
quenching activity against hydroxyl radical (HORAC), rank among hop components [2]: highest quenching activity
MBC (S. pyogenes (ATCC 14289)): [3] g/mL
